Measured values from patent US8048893B2, “Pyrazolyl derivatives, preparation process and intermediates of this process as medicinal products and pharmaceutical compositions containing them” (Aventis Pharma SA, priority 2003, dated 2011).

| Structure (SMILES) | melting point |
| --- | --- |
| Cl.Cl.Oc1nn(CCN2CC3CCC2C3)cc1-c1ccccc1 (stereo not shown) | 173 °C (dec.) |
| CC(Cn1cc(-c2ccccc2)c(O)n1)N(C)C.Cl.Cl (stereo not shown) | 189 °C |
| NC(=O)c1ccccc1-c1cnn(CCN2CCCCC2)c1 [Example 72, 2-[1-(2-Piperidin-1-ylethyl)-1H-pyrazol-4-yl]benzamide] | 168 °C |
| CS(=O)(=O)Nc1nn(CCN2CCCCC2)cc1-c1ccccc1 [Example 25, N-[4-Phenyl-1-(2-piperidin-1-ylethyl)-1H-pyrazol-3-yl]-methanesulfonamide] | 121 °C |
| CN1CCCC(Cn2cc(-c3ccccc3)c(O)n2)C1 (stereo not shown) [Example 27, 1-(1-Methylpiperidin-3-ylmethyl)-4-phenyl-1H-pyrazol-3-ol] | 132 °C |

Second part, the molecule after the results:

| melting point | Structure (SMILES) |
| --- | --- |
| 228 °C (dec.) | Cl.Cl.Oc1nn(CCN2CCCCCC2)cc1-c1ccccc1 |
| 222 °C | Cc1c(-c2ccccc2)c(O)nn1CCN1CCCCC1.Cl.Cl |
